The values below come from patent US5194432A, “Cephem compounds” (Fujisawa Pharmaceutical Co., Ltd., priority 1985, dated 1993).

In brackets after ≈: the same amount, converted by molar mass.

Common to all, as to assay type: cell-based
One assay has as its system P. mirabilis 1. In words: In vitro antibacterial activity, two-fold agar-plate dilution method (MIC), P. mirabilis 1. To be noted: Proteus mirabilis, heart infusion agar, 10^6 viable cells per ml, 37° C., 20 hours, read-out: MIC (minimal inhibitory concentration). As for the experimental part: (§1) In vitro antibacterial activity was determined by the two-fold agar-plate dilution method as described below.
(§2) One loopful of an overnight culture of each test strain in Trypticase-soy broth (10^6 viable cells per ml) was streaked on heart infusion agar (HI-agar) containing graded concentrations of representative test compound, and the minimal inhibitory concentration (MIC) was expressed in terms of μg/ml after incubation at 37° C. for 20 hours.

The test system of the next assay is P. vulgaris IAM1025. Description: In vitro antibacterial activity, two-fold agar-plate dilution method (MIC), P. vulgaris IAM1025. The following applies: Proteus vulgaris, heart infusion agar, 10^6 viable cells per ml, 37° C., 20 hours, read-out: MIC (minimal inhibitory concentration). As for the experimental part:
as §1, §2

A further assay has as its system E. coli 31. In words: In vitro antibacterial activity, two-fold agar-plate dilution method (MIC), E. coli 31. The following applies: Escherichia coli, heart infusion agar, 10^6 viable cells per ml, 37° C., 20 hours, read-out: MIC (minimal inhibitory concentration). The protocol: as §1, §2

Take `CO/N=C(\C(=O)N[C@@H]1C(=O)N2C(C(=O)[O-])=C(C[n+]3cc(C)c(N)n3C)CS[C@H]12)c1csc(N)n1` [Compound C, 7β-[2-(2-Aminothiazol-4-yl)-2-methoxyiminoacetamido]-3-(3-amino-2,4-dimethyl-1-pyrazolio)methyl-3-cephem-4-carboxylate (syn isomer)]: the MIC was 0.05 µg/mL (≈ 0.0987 µM) in the assay on P. mirabilis 1, at most 0.025 µg/mL with P. vulgaris IAM1025 and at most 0.025 µg/mL in the assay with E. coli 31.
Turning to `Cc1c[n+](CC2=C(C(=O)[O-])N3C(=O)[C@@H](NC(=O)/C(=N\OC(F)F)c4csc(N)n4)[C@H]3SC2)n(C)c1N` [Compound D, 7β-[2-(2-Aminothiazol-4-yl)-2-(difluoromethoxyimino)acetamido]-3-(3-amino-2,4-dimethyl-1-pyrazolio)methyl-3-cephem-4-carboxylate (syn isomer)], the figures for the MIC in the assay with P. mirabilis 1, in the assay with P. vulgaris IAM1025 and in the assay with E. coli 31 were 0.05 µg/mL (≈ 0.0922 µM), at most 0.025 µg/mL and at most 0.025 µg/mL, respectively.
As for `Cn1ccc[n+]1CC1=C(C(=O)[O-])N2C(=O)[C@@H](NC(=O)/C(=N\OC(F)F)c3csc(N)n3)[C@H]2SC1` [Compound A, 7β-[2-(2-Aminothiazol-4-yl)-2-(difluoromethoxyimino)acetamido]-3-(2-methyl-1-pyrazolio)methyl-3-cephem-4-carboxylate (syn isomer)], the MIC in the assay with P. mirabilis 1 is 0.05 µg/mL (≈ 0.0974 µM); in the assay with P. vulgaris IAM1025, 0.05 µg/mL (≈ 0.0974 µM); in the assay on E. coli 31, below 0.025 µg/mL.
For the compound `Cn1ccc[n+]1CC1=C(C(=O)[O-])N2C(=O)[C@@H](NC(=O)/C(=N\OC3C=CCC3)c3csc(N)n3)[C@H]2SC1` (stereo partly drawn) [Compound B, 7β-[2-(2-Aminothiazol-4-yl)-2-(2-cyclopenten-1-yloxyimino)acetamido]-3-(2-methyl-1-pyrazolio)methyl-3-cephem-4-carboxylate (syn isomer)], the MIC in the assay on P. mirabilis 1 was 0.2 µg/mL (≈ 0.378 µM); in the assay with P. vulgaris IAM1025, 0.05 µg/mL (≈ 0.0944 µM); in the assay on E. coli 31, 0.05 µg/mL (≈ 0.0944 µM).
